Data from article PMC8901753, “An ultrasensitive microfluidic approach reveals correlations between the physico-chemical and biological activity of experimental peptide antibiotics” (Scientific Reports, 2022).

System: not listed separately
Assay: Single-GUV dye (HPTS) leakage assay, membranolytic activity
Settings: 5 μM peptide, continuous flow, after 7 h, PBS pH 7.4, mean ± std. dev., 2 independent repeats
Description: Given this variability in the cellular responses to treatment, we hypothesized that cell-to-cell differences at the membrane level could underlie the observed heterogeneity in the bacterial responses to these novel peptides. We therefore used anionic giant unilamellar vesicles (GUVs) as highly controlled model membranes to study the membranolytic activity of the bienA and bienK peptides. The vesicles were produced in a microfluidic chip using octanol-assisted liposome assembly (OLA)[40] and made with a 3:1 mixture of 1,2-dioleoyl-sn-glycero-3-phosphocholine (DOPC) and 1,2-dioleoyl-sn-glycero-3- phospho-rac-(1-glycerol) sodium salt (DOPG) to mimic the anionic charge of bacterial membranes[27] (Fig. 4). We note that E. coli membranes are estimated to be ~ 20% PG, and that lipids of the inner membrane in particular contain a high proportion (over 95%) of phospholipids, similar to our phospholipid-based GUV models. The more complex E. coli outer membrane includes both phospholipids and glycolipids. […] In particular, in a direct comparison, AMP induced membrane permeabilisation was similar across GUVs and E. coli inner (cytoplasmic) membranes, albeit with some interesting dissimilarities in a few specific details. In our assay, the GUVs were formed encapsulating a membrane impermeable dye, HPTS (8-hydroxypyrene-1,3,6-trisulfonic acid) and immobilized using an array of physical traps; the peptide solution was then flowed over them using a continuous flow system.
Figure 4 Schematic of the integrated GUV production, trapping and perfusion platform. GUVs are produced using octanol-assisted liposome assembly at a 6-way junction as described elsewhere. Briefly, lipids dissolved in octanol (the “LO” phase) are brought together at the junction with inner aqueous (IA) and outer aqueous (OA) streams, leading to the production of GUVs hosting octanol droplets. The octanol droplets bud off the GUVs downstream. This mixture of GUVs and octanol droplets is distributed into an array of trapping chambers via a connector chip, which additionally facilitates the separation of the GUVs and octanol droplets (for details, please see Al Nahas et al. Lab Chip 2019[27]). The trapped vesicles contain the membrane-impermeable fluorescent dye HPTS. Post-trapping, the GUVs are subjected to a continuous flow of peptides, and the membranolytic efficacy of the peptides is determined by studying the leakage of the fluorescent dye from the interior of the GUVs via video fluorescence microscopy.
We have published detailed protocols for the design, fabrication and operation of the microfluidic device for immobilizing and testing thousands of individual GUVs, which can be found elsewhere[23],[27]. A detailed protocol for the octanol-assisted liposome assembly (OLA) technique of producing GUVs on chip is also available. Briefly, our platform facilitated three procedural steps integrated in a single device. First, the OLA[40] technique was used to prepare GUVs. Next, the GUVs were trapped downstream in arrays of hydrodynamic posts. Finally, the immobilized GUVs were perfused with the desired dose of a peptide. All lipids described in the text were purchased from Avanti Polar Lipids. The GUVs were prepared in sucrose solution (200 mM) with glycerol (15% v/v) in PBS (pH 7.4). The vesicles were formed encapsulating the fluorescent membrane-impermeable dye 8-hydroxypyrene-1,3,6-trisulfonic acid from Thermo Fisher (HPTS, 50 μM). The microfluidic platform was operated by two positive pressure-driven pump modules (MFCS-4C, Fluigent), and a single neMESYS syringe pump module for fluid manipulation. The trapped GUVs were continuously dosed with buffer solution loaded with 5 μM HPTS (as a tracer) and the peptide of interest at 5 or 10 μM concentrations (the stock peptide solutions were prepared in milliQ water as described previously). […]

Sequence | vesicle survival rate
RLLRLALRLLR [bienA11, ultrashort amphipathic helix peptide with binary encoding by arginine and leucine, alanine at the mutation position] | 1 ± 1%
RLLRLALRL [bienA9, ultrashort amphipathic helix peptide with binary encoding by arginine and leucine, alanine at the mutation position] | 41 ± 3%
RLLRLKLRL [bienK9, ultrashort amphipathic helix peptide with binary encoding by arginine and leucine, lysine at the mutation position] | 41 ± 20%
RLLRLALRLL [bienA10, ultrashort amphipathic helix peptide with binary encoding by arginine and leucine, alanine at the mutation position] | 12 ± 2%
RLLRLKLRLL [bienK10, ultrashort amphipathic helix peptide with binary encoding by arginine and leucine, lysine at the mutation position] | 40 ± 7%
RLLRLKLRLLR [bienK11, ultrashort amphipathic helix peptide with binary encoding by arginine and leucine, lysine at the mutation position] | 70 ± 13%

Same assay, conditions: 10 μM peptide, continuous flow, after 7 h, PBS pH 7.4, mean ± std. dev., 2 independent repeats

Sequence | vesicle survival rate
RLLRLALRLLR [bienA11, ultrashort amphipathic helix peptide with binary encoding by arginine and leucine, alanine at the mutation position] | complete disruption of the entire vesicle population
RLLRLALRL [bienA9, ultrashort amphipathic helix peptide with binary encoding by arginine and leucine, alanine at the mutation position] | 19.9 ± 0.5%
RLLRLKLRL [bienK9, ultrashort amphipathic helix peptide with binary encoding by arginine and leucine, lysine at the mutation position] | 47 ± 7%
RLLRLALRLL [bienA10, ultrashort amphipathic helix peptide with binary encoding by arginine and leucine, alanine at the mutation position] | complete disruption of the entire vesicle population
RLLRLKLRLL [bienK10, ultrashort amphipathic helix peptide with binary encoding by arginine and leucine, lysine at the mutation position] | 48 ± 10%
RLLRLKLRLLR [bienK11, ultrashort amphipathic helix peptide with binary encoding by arginine and leucine, lysine at the mutation position] | 78 ± 4%

Same assay, conditions: 10 μM peptide, continuous flow, after 7 h, PBS pH 7.4, mean ± std. dev., 2 independent repeats; listed as A10

Sequence | vesicle survival rate
RLLRLALRLL [bienA10, ultrashort amphipathic helix peptide with binary encoding by arginine and leucine, alanine at the mutation position] | 0%

Same assay, conditions: 10 μM peptide, continuous flow, after 7 h, PBS pH 7.4, mean ± std. dev., 2 independent repeats; listed as A11

Sequence | vesicle survival rate
RLLRLALRLLR [bienA11, ultrashort amphipathic helix peptide with binary encoding by arginine and leucine, alanine at the mutation position] | 0%

Same assay, conditions: 5 and 10 μM peptide

Sequence | mode of action from time distribution of single-GUV leakage events
RLLRLALRLLR [bienA11, ultrashort amphipathic helix peptide with binary encoding by arginine and leucine, alanine at the mutation position] | unimodal “graded” mode of action
RLLRLALRL [bienA9, ultrashort amphipathic helix peptide with binary encoding by arginine and leucine, alanine at the mutation position] | bimodal all-or-none mode
RLLRLALRLL [bienA10, ultrashort amphipathic helix peptide with binary encoding by arginine and leucine, alanine at the mutation position] | unimodal “graded” mode of action

System: E. coli BW25113 cells
Assay: Mother-machine microfluidics-microscopy single-cell assay
Format: cell-based, Escherichia coli
Settings: 10 μM peptide, 3 h, measured per well
Description: The “mother-machine” system (Fig. 1A) enables the physical confinement of individual bacteria in well-controlled microenvironments, where they can be sequentially exposed to nutrients, drugs or viability indicators and the responses studied using time-lapse microscopy[28]–[30]. This technology has been used extensively to study bacterial-drug interactions, using a range of conventional small-molecule antibiotics such as ampicillin, gentamicin, ciprofloxacin (amongst others)[28],[30]–[33], phages[34] as well as novel protein pseudocapsid based antibacterials. Briefly E. coli BW25113 cells were cultured overnight in Lysogeny Broth (LB) at 37 °C to stationary phase and injected into the mother-machine microfluidic device (see “Experimental section” and[28],[29],[31],[32]). We waited for the cells to populate the “wells” of the chip (Fig. 1), following which the trapped cells were challenged with a continuous flow of peptide (10 μM) for 3 h, with images taken hourly. After 3 h of treatment, the cells were provided with fresh LB to study survivors. Post overnight (O/N) LB treatment, dead staining was performed with propidium iodide (PI). Dead cells either lysed or took up PI and appeared bright under fluorescence illumination (Fig. 1B). […] However, the cells that were dividing at the end of the experiment were unambiguously alive. Therefore, we chose to use only these dividing cells in our quantitative analysis discussed below.
Thus, reaching a critical peptide length leads to increased antibacterial activity with the bienA peptides. […] For bienK10 and bienK11, the survival fractions were 56 ± 26% (204 wells, 305 cells) and 31 ± 18% (215 wells, 311 cells) respectively (Fig. 2B), markedly different from the bienA10 and bienA11 results (Fig. 2A). Thus for these bienK peptides, while some individual cells were killed by the peptides, a large number of other clonal relatives survived the exact same conditions, similar to the example shown in Fig. 1. […] Our results reveal important phenotypic variants seemingly oblivious to the effects of these polypeptide antibiotics that are able to grow and divide even during treatment, while their clonal relatives perish. We also observed similar trends when quantifying the cellular division rates in response to the peptides (Fig. 2C,D). […] Again, as with the survival fractions, this peptide length dependence was not observed for the cellular division rates with the bienK series (Fig. 2D).
The Escherichia coli (BW25113) cultures were prepared in 150 mL of Lysogeny Broth (LB; 10 g/L tryptone, 5 g/L yeast extract and 10 g/L NaCl, Melford) with shaking at 200 rpm and incubation at 37 °C overnight (drug dosage during experiments was typically performed around 19–20 h after starting the culture). Prior to seeding in the microfluidic chip, the OD (optical density) of the culture was measured, the cells spun down at 3220g for 5 min and the supernatant filtered twice (0.22 µm, Millipore); this twice filtered supernatant is hereafter referred to as “spent LB”. All OD measurements were carried out at 600 nm. The cell pellet was resuspended in spent LB at an approximate OD of 75; this concentrated stationary phase culture was used when seeding the microfluidic chip with bacteria. Note, the OD of 75 is a theoretical value—we measure the OD of the original stationary phase culture, and calculate the volume of spent LB that the cell pellet (post centrifugation) is to be resuspended in to achieve this OD. In practical terms, one simply needs to concentrate the culture to optimise the efficiency of cells entering the wells of the mother-machine microfluidic device within a 30 min timeframe. We also note that unlike most traditional bulk experiments, we chose to study cells initially seeded in the microfluidic device in stationary phase, in line with previous studies using this platform[30]–[32],[34]. […]

Sequence | cell division during peptide treatment
RLLRLALRLLR [bienA11, ultrashort amphipathic helix peptide with binary encoding by arginine and leucine, alanine at the mutation position] | immediately and uniformly arrested cell division
RLLRLALRL [bienA9, ultrashort amphipathic helix peptide with binary encoding by arginine and leucine, alanine at the mutation position] | did not
RLLRLALRLL [bienA10, ultrashort amphipathic helix peptide with binary encoding by arginine and leucine, alanine at the mutation position] | immediately and uniformly arrested cell division

Same assay, conditions: 10 μM peptide, 3 h time point, susceptible cells; 20 cells from 2 repeats (bienA9: 5 cells, 1 experiment)

Sequence | coefficient of variation (CV) in the cell lengths
RLLRLALRLLR [bienA11, ultrashort amphipathic helix peptide with binary encoding by arginine and leucine, alanine at the mutation position] | 16%
RLLRLALRL [bienA9, ultrashort amphipathic helix peptide with binary encoding by arginine and leucine, alanine at the mutation position] | 17%
RLLRLKLRL [bienK9, ultrashort amphipathic helix peptide with binary encoding by arginine and leucine, lysine at the mutation position] | 44%
RLLRLALRLL [bienA10, ultrashort amphipathic helix peptide with binary encoding by arginine and leucine, alanine at the mutation position] | 16%
RLLRLKLRLL [bienK10, ultrashort amphipathic helix peptide with binary encoding by arginine and leucine, lysine at the mutation position] | 47%
RLLRLKLRLLR [bienK11, ultrashort amphipathic helix peptide with binary encoding by arginine and leucine, lysine at the mutation position] | 48%

Same assay, conditions: 10 μM peptide, 3 h time-point, mean ± std. dev., susceptible cells killed before dividing

Sequence | Lmean 3h (mean cell length normalized to initial cell length)
RLLRLALRLLR [bienA11, ultrashort amphipathic helix peptide with binary encoding by arginine and leucine, alanine at the mutation position] | 1.2 ± 0.2
RLLRLALRL [bienA9, ultrashort amphipathic helix peptide with binary encoding by arginine and leucine, alanine at the mutation position] | 0.9 ± 0.2
RLLRLKLRL [bienK9, ultrashort amphipathic helix peptide with binary encoding by arginine and leucine, lysine at the mutation position] | 2.0 ± 0.9
RLLRLALRLL [bienA10, ultrashort amphipathic helix peptide with binary encoding by arginine and leucine, alanine at the mutation position] | 1.2 ± 0.2
RLLRLKLRLL [bienK10, ultrashort amphipathic helix peptide with binary encoding by arginine and leucine, lysine at the mutation position] | 2.0 ± 0.9
RLLRLKLRLLR [bienK11, ultrashort amphipathic helix peptide with binary encoding by arginine and leucine, lysine at the mutation position] | 1.8 ± 0.9

Same assay, conditions: 10 μM peptide, continuous flow 3 h, then LB overnight (17–18 h); stationary phase cells; mean ± std. dev. over 2 biological repeats

Sequence | survival fraction (fraction of wells hosting dividing cells after peptide treatment and overnight LB)
RLLRLALRLLR [bienA11, ultrashort amphipathic helix peptide with binary encoding by arginine and leucine, alanine at the mutation position] | less than 5%
RLLRLALRL [bienA9, ultrashort amphipathic helix peptide with binary encoding by arginine and leucine, alanine at the mutation position] | 65 ± 11%
RLLRLALRLL [bienA10, ultrashort amphipathic helix peptide with binary encoding by arginine and leucine, alanine at the mutation position] | less than 5%
RLLRLKLRLLR [bienK11, ultrashort amphipathic helix peptide with binary encoding by arginine and leucine, lysine at the mutation position] | 31 ± 18%

Same assay, conditions: 10 μM peptide, continuous flow 3 h, then LB overnight (17–18 h); stationary phase cells; mean ± std. dev. over 2 biological repeats; listed as A11

Sequence | survival fraction (fraction of wells hosting dividing cells after peptide treatment and overnight LB)
RLLRLALRLLR [bienA11, ultrashort amphipathic helix peptide with binary encoding by arginine and leucine, alanine at the mutation position] | 0%

Same assay, conditions: 10 μM peptide, continuous flow 3 h, then LB overnight (17–18 h); stationary phase cells; mean ± std. dev. over 2 biological repeats; listed as BienA9

Sequence | survival fraction (fraction of wells hosting dividing cells after peptide treatment and overnight LB)
RLLRLALRL [bienA9, ultrashort amphipathic helix peptide with binary encoding by arginine and leucine, alanine at the mutation position] | over 50%

Same assay, conditions: 10 μM peptide, susceptible cells killed before dividing

Sequence | increase in cell length on average before cell death
RLLRLALRLLR [bienA11, ultrashort amphipathic helix peptide with binary encoding by arginine and leucine, alanine at the mutation position] | 20%
RLLRLALRLL [bienA10, ultrashort amphipathic helix peptide with binary encoding by arginine and leucine, alanine at the mutation position] | 20%

Same assay, conditions: 10 M [sic] peptide; cells that did not divide and did not stain with propidium iodide; out of 305–323 initial cells

Sequence | No. of non-dividing survivors at the end of the experiments
RLLRLALRLLR [bienA11, ultrashort amphipathic helix peptide with binary encoding by arginine and leucine, alanine at the mutation position] | 24
RLLRLALRL [bienA9, ultrashort amphipathic helix peptide with binary encoding by arginine and leucine, alanine at the mutation position] | 11
RLLRLKLRL [bienK9, ultrashort amphipathic helix peptide with binary encoding by arginine and leucine, lysine at the mutation position] | 13
RLLRLALRLL [bienA10, ultrashort amphipathic helix peptide with binary encoding by arginine and leucine, alanine at the mutation position] | 6
RLLRLKLRLL [bienK10, ultrashort amphipathic helix peptide with binary encoding by arginine and leucine, lysine at the mutation position] | 7
RLLRLKLRLLR [bienK11, ultrashort amphipathic helix peptide with binary encoding by arginine and leucine, lysine at the mutation position] | 1
